Laboratory results from ChEMBL document CHEMBL1142520, “Potent, selective and orally bioavailable dihydropyrimidine inhibitors of Rho kinase (ROCK1) as potential therapeutic agents for cardiovascular diseases” (J Med Chem, 2008).

What was measured:
[1] = target: Rho-associated protein kinase 1 (Homo sapiens, UniProt Q13464); test: Inhibition of human recombinant ROCK1 kinase expressed in insect Sf9 cells by SPA
[2] = Oral bioavailability in Sprague-Dawley rat at 1.2 mg/kg; type: ADME, organism-based; conditions: in vivo
[3] = Oral bioavailability in Sprague-Dawley rat at 1.1 mg/kg; type: ADME, organism-based; conditions: in vivo
Rattus norvegicus [4] = test: (§1) Half life in Sprague-Dawley rat at 1.1 mg/kg, iv; type: ADME, organism-based; design: dose 1.1 mg/kg, route intravenous; conditions: in vivo
Rattus norvegicus [5] = test: (§2) Volume of distribution at steady state in Sprague-Dawley rat at 1.1 mg/kg, iv; type: ADME, organism-based; design: dose 1.1 mg/kg, route intravenous; conditions: in vivo
Cytochrome P450 2D6 = Cytochrome P450 2D6 (Homo sapiens, UniProt P10635); test: Inhibition of CYP2D6; type: ADME
Sequence of Cytochrome P450 2D6 (P10635 whole entry): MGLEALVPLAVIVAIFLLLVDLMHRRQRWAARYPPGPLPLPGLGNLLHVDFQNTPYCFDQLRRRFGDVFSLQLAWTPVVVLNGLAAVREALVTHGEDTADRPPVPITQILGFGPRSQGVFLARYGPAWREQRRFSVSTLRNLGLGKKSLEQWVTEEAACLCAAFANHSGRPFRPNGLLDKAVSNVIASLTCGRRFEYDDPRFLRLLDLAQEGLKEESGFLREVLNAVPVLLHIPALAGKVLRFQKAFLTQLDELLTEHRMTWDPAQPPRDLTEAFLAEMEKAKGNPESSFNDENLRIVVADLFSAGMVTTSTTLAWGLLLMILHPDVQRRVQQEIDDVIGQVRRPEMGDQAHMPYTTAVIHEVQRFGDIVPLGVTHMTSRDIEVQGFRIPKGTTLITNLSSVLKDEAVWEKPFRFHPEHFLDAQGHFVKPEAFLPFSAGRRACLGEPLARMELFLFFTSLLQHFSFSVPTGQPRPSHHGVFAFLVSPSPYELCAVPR

Cytochrome P450 3A4 = Cytochrome P450 3A4 (Homo sapiens, UniProt P08684); test: Inhibition of CYP3A4; type: ADME
Sequence of Cytochrome P450 3A4 (P08684 whole entry): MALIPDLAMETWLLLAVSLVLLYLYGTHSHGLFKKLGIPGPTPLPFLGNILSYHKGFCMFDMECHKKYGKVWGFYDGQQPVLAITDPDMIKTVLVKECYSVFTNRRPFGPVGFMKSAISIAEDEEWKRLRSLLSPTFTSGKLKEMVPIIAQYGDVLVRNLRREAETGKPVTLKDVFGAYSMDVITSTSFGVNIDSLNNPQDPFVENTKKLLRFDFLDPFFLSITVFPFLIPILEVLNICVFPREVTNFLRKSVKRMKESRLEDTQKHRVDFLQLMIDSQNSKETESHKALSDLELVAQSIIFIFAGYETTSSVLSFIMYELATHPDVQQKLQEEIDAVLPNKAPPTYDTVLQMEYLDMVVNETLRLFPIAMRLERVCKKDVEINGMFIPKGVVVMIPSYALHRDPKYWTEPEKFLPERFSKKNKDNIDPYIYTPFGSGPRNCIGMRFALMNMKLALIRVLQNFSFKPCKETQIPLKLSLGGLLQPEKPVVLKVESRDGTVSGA

Cytochrome P450 2C9 = Cytochrome P450 2C9 (Homo sapiens, UniProt P11712); test: Inhibition of CYP2C9; type: ADME
Sequence of Cytochrome P450 2C9 (P11712 whole entry): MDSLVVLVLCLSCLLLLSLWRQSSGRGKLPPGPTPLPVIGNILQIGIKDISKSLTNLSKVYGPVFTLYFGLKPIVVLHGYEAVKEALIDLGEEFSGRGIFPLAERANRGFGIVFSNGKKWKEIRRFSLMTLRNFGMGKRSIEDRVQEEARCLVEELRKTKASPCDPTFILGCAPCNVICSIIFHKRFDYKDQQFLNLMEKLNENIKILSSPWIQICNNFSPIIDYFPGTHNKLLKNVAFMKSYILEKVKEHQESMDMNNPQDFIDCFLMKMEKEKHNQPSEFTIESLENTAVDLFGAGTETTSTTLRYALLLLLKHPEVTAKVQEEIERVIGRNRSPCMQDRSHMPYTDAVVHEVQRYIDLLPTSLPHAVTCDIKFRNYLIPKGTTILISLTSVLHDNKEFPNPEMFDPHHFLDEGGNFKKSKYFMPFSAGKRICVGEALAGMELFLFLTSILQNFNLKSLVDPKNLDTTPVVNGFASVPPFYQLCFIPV

[6] = Volume of distribution at steady state in Sprague-Dawley rat at 1.2 mg/kg, iv; type: ADME, organism-based; design: dose 1.2 mg/kg, route intravenous; conditions: in vivo, read-out: Vdss
[7] = Clearance in Sprague-Dawley rat at 1.2 mg/kg, iv; type: ADME, organism-based; design: dose 1.2 mg/kg, route intravenous; conditions: in vivo
[8] = Half life in Sprague-Dawley rat at 1.2 mg/kg, iv; type: ADME, organism-based; design: dose 1.2 mg/kg, route intravenous; conditions: in vivo
[9] = Oral bioavailability in Sprague-Dawley rat at 1.8 mg/kg; type: ADME, organism-based; conditions: in vivo
[10] = Volume of distribution at steady state in Sprague-Dawley rat at 1.8 mg/kg, iv; type: ADME, organism-based; design: dose 1.8 mg/kg, route intravenous; conditions: in vivo, read-out: Vdss
[11] = Clearance in Sprague-Dawley rat at 1.8 mg/kg, iv; type: ADME, organism-based; design: dose 1.8 mg/kg, route intravenous; conditions: in vivo
[12] = target: Ribosomal protein S6 kinase alpha-1 (Homo sapiens, UniProt Q15418); test: Inhibition of RSK1
Sequence of Ribosomal protein S6 kinase alpha-1 (Q15418 whole entry): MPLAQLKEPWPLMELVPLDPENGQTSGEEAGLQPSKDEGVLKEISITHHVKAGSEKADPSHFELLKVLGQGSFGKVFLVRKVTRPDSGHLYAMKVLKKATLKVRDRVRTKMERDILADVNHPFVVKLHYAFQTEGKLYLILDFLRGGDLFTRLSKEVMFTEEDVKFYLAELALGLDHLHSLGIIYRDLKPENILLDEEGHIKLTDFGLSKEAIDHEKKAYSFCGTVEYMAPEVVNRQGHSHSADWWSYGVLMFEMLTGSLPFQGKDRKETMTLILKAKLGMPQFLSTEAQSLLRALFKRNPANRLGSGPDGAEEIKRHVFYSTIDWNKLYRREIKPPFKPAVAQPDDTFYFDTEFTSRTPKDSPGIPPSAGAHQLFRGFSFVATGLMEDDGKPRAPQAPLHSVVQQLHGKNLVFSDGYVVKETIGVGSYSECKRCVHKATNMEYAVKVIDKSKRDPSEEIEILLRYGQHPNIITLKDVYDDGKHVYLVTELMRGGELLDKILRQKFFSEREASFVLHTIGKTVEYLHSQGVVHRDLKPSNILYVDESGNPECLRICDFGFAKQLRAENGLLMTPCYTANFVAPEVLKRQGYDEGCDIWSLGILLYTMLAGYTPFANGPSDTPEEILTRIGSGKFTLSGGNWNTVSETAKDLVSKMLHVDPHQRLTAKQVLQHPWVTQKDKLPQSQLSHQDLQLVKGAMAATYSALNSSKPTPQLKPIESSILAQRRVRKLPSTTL

Aorta = test: Inhibition of phenylephrine-induced aortic ring contraction in Sprague-Dawley rat; type: functional, tissue-based
[13] = Half life in Sprague-Dawley rat at 1.8 mg/kg, iv; type: ADME, organism-based; design: dose 1.8 mg/kg, route intravenous; conditions: in vivo
[14] = target: Ribosomal protein S6 kinase beta-1 (Homo sapiens, UniProt P23443); test: Inhibition of p70S6K
Sequence of Ribosomal protein S6 kinase beta-1 (P23443 whole entry): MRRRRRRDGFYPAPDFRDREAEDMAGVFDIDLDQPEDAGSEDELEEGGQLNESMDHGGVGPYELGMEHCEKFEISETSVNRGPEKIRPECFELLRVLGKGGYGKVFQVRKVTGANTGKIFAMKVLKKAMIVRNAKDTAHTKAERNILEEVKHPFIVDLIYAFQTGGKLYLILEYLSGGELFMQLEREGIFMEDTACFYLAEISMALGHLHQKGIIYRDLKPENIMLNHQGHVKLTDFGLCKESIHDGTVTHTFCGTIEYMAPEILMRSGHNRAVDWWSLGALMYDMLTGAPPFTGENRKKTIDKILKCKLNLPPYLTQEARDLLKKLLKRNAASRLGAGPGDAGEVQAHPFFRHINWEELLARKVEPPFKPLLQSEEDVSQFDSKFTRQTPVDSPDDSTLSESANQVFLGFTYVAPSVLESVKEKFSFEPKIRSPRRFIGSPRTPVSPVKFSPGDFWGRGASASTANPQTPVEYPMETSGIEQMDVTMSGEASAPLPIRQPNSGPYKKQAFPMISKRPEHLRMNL

[15] = as §1; type: ADME, organism-based; design: dose 1.1 mg/kg, route intravenous; conditions: Sprague-Dawley, in vivo
[16] = as §2; type: ADME, organism-based; design: dose 1.1 mg/kg, route intravenous; conditions: Sprague-Dawley, in vivo, read-out: Vdss
[17] = Clearance in Sprague-Dawley rat at 1.1 mg/kg, iv; type: ADME, organism-based; design: dose 1.1 mg/kg, route intravenous; conditions: in vivo
[18] = Half life in monkey; type: ADME, organism-based, Macaca mulatta; conditions: rhesus monkey, in vivo
Rattus norvegicus [19] = test: Decrease in mean arterial pressure in conscious spontaneous hypertensive rat model at 30 mg/kg, po
[20] = Oral bioavailability in monkey; type: ADME, organism-based, Macaca mulatta; conditions: rhesus monkey, in vivo
[21] = Half life in Sprague-Dawley rat at 1.3 mg/kg, iv; type: ADME, organism-based; design: dose 1.3 mg/kg, route intravenous; conditions: in vivo
[22] = Clearance in Sprague-Dawley rat at 1.3 mg/kg, iv; type: ADME, organism-based; design: dose 1.3 mg/kg, route intravenous; conditions: in vivo
[23] = Volume of distribution at steady state in Sprague-Dawley rat at 1.3 mg/kg, iv; type: ADME, organism-based; design: dose 1.3 mg/kg, route intravenous; conditions: in vivo, read-out: Vdss

Sequence of Rho-associated protein kinase 1 (Q13464 whole entry): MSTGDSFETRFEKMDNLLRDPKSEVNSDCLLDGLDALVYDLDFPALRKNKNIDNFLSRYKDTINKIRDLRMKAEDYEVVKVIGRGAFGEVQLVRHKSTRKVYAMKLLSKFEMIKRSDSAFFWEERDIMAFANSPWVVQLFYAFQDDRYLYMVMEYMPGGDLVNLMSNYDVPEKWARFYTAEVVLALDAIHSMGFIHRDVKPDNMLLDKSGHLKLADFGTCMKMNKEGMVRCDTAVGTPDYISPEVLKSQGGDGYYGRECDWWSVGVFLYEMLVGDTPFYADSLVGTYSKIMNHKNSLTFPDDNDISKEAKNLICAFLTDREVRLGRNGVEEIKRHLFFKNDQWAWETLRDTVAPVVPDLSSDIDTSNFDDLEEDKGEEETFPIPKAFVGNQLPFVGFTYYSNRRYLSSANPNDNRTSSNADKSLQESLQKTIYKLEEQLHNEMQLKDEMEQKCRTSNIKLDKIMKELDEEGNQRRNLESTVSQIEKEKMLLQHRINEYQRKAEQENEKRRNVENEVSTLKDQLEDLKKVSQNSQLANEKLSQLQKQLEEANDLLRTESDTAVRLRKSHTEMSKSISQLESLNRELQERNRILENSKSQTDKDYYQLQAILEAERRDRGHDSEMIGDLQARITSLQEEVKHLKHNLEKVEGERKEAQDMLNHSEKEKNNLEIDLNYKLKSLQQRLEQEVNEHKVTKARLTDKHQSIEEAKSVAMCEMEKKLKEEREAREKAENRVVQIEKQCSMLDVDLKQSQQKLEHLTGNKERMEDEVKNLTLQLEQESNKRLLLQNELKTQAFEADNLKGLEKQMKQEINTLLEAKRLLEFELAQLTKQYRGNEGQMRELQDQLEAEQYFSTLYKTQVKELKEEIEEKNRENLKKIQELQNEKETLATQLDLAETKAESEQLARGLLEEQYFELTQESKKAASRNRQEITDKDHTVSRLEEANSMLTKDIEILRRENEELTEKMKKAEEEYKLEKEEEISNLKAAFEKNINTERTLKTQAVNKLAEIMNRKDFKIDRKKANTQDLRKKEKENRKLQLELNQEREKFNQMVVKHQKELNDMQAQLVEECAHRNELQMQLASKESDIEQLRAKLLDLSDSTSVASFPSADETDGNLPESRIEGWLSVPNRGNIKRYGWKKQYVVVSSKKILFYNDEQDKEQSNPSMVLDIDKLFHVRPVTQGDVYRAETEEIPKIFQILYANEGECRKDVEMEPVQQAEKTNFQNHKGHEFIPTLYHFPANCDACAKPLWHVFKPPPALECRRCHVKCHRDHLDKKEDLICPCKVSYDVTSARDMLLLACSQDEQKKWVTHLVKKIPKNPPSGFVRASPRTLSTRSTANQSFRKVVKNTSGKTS

Work on `CC1=C(C(=O)Nc2ccc3[nH]ncc3c2)C(c2ccc(F)cc2)N=C(c2cccc(C)c2)N1` (configuration not stated) yielded an IC50 [1] of 129 nM.
With `COc1ccc(C2=NC(c3ccc(S(C)(=O)=O)cc3)C(C(=O)Nc3ccc4[nH]ncc4c3)=C(C)N2)cc1` (configuration not stated) the IC50 [1] was 150 nM.
`CC1=C(C(=O)Nc2ccc3[nH]ncc3c2)C(c2ccc(F)cc2)N=C(c2ccncc2)N1` (configuration not stated) showed a bioavailability [2] of 0% and an IC50 [1] of 8 nM.
Work on `CC1=C(C(=O)Nc2ccc3[nH]ncc3c2)C(c2ccc(F)cc2)N=C(c2cnccn2)N1` (configuration not stated) yielded an IC50 [1] of 105 nM.
With `CC1=C(C(=O)Nc2ccc3[nH]ncc3c2)C(c2ccc(Cl)cc2F)N=C(c2ccnc(Cl)c2)N1` (configuration not stated) the bioavailability [3] was 7%, the t1/2 (Rattus norvegicus [4]) was 1.03 h and the Vdss (Rattus norvegicus [5]) was 1.6 L/kg. It also gave an IC50 (Cytochrome P450 2D6) of 5700 nM, an IC50 [1] of 4 nM and an IC50 (Cytochrome P450 3A4) of 5500 nM.
Work on `COc1cc(C2=NC(c3ccc(Cl)cc3F)C(C(=O)Nc3ccc4[nH]ncc4c3)=C(C)N2)ccn1` (configuration not stated) yielded a bioavailability [3] of 21%, a t1/2 (Rattus norvegicus [4]) of 0.567 h and a Vdss (Rattus norvegicus [5]) of 2 L/kg. The IC50 (Cytochrome P450 2D6) was 3700 nM, the IC50 [1] was 2 nM and the IC50 (Cytochrome P450 3A4) was 4300 nM.
Compound `CC1=C(C(=O)Nc2ccc3[nH]ncc3c2)C(c2ccc(F)cc2)N=C(c2cccc(C(F)(F)F)c2)N1` (configuration not stated) has an IC50 [1] of 288 nM.
In the case of `COc1ccc(C2=NC(c3ccc(Cl)cc3F)C(C(=O)Nc3ccc4[nH]ncc4c3)=C(C)N2)cn1` (configuration not stated), the bioavailability [3] is reported as 27%, the IC50 (Cytochrome P450 2D6) is reported as 1200 nM and the IC50 [1] is reported as 3 nM. It also gave an IC50 (Cytochrome P450 3A4) of 2500 nM.
With `COc1ccc(C2=NC(c3ccc(S(N)(=O)=O)cc3)C(C(=O)Nc3ccc4[nH]ncc4c3)=C(C)N2)cc1` (configuration not stated) the IC50 [1] was 68 nM.
With `CC1=C(C(=O)Nc2cc3cn[nH]c3cc2F)C(c2ccc(Cl)cc2F)N=C(c2ccnc(C)c2)N1` (configuration not stated) the IC50 [1] was 10 nM.
With `CC1=C(C(=O)Nc2ccc3[nH]ncc3c2)C(c2ccc(F)cc2)N=C(c2ccc(C)cc2)N1` (configuration not stated) the IC50 [1] was 101 nM.
`CC1=C(C(=O)Nc2ccc3[nH]ncc3c2)C(c2ccc(F)cc2)N=C(c2ccc(C)c(F)c2)N1` (configuration not stated) showed an IC50 [1] of 104 nM.
Work on `CC1=C(C(=O)Nc2ccc3[nH]ncc3c2)C(c2ccc(F)cc2)N=C(c2ccccn2)N1` (configuration not stated) yielded an IC50 [1] of 180 nM.
`CC1=C(C(=O)Nc2ccc3[nH]nc(C)c3c2)C(c2ccc(Cl)cc2F)N=C(c2ccnc(Cl)c2)N1` (configuration not stated) showed an IC50 [1] of 15 nM.
With `COc1cc(C2=NC(c3ccc(Cl)cc3F)C(C(=O)Nc3cc4cn[nH]c4cc3F)=C(C)N2)ccn1` (configuration not stated) the bioavailability [3] was 53%, the t1/2 (Rattus norvegicus [4]) was 0.767 h and the Vdss (Rattus norvegicus [5]) was 2.5 L/kg. It also gave an IC50 (Cytochrome P450 2C9) of 8400 nM, an IC50 (Cytochrome P450 2D6) of 2100 nM and an IC50 [1] of 6 nM. The IC50 (Cytochrome P450 3A4) was 5300 nM.
Work on `COc1ccc(C2=NC(c3ccc(F)cc3)C(C(=O)Nc3ccc4[nH]ncc4c3)=C(C)N2)cc1` (configuration not stated) yielded a bioavailability [2] of 35%, a Vd [6] of 5.1 L/kg and an IC50 [1] of 46 nM. The clearance [7] was 55 mL/min/kg and the half-life [8] was 2.82 h.
`CC1=C(C(=O)Nc2ccc3[nH]ncc3c2)C(c2ccc(F)cc2)N=C(c2ccccc2)N1` (configuration not stated) gave a bioavailability [9] of 16%, a Vd [10] of 0.8 L/kg and a clearance [11] of 15 mL/min/kg. It also gave an IC50 (Cytochrome P450 2C9) of 640 nM, an IC50 (Cytochrome P450 2D6) of 90 nM and an IC50 [12] of 5300 nM. It also gave an IC50 (Aorta) of 1300 nM, an IC50 [1] of 105 nM and an IC50 (Cytochrome P450 3A4) of 350 nM. The half-life [13] was 1 h and the IC50 [14] was 4500 nM.
In the case of `COc1ccc(C2=NC(C)C(C(=O)Nc3ccc4[nH]ncc4c3)=C(C)N2)cc1` (configuration not stated), the IC50 [1] is reported as 863 nM.
Work on `COc1ccc(C2=NC(c3ccc(C(F)(F)F)cc3F)C(C(=O)Nc3ccc4[nH]ncc4c3)=C(C)N2)cc1` (configuration not stated) yielded an IC50 [1] of 26 nM.
For `COc1ccc(C2=NC(c3ccc(Cl)cc3F)C(C(=O)Nc3ccc4[nH]ncc4c3)=C(C)N2)cc1` (configuration not stated), the bioavailability [3] was 58%, the half-life [15] was 1.13 h and the Vd [16] was 6.46 L/kg. The IC50 (Cytochrome P450 2D6) was 200 nM, the IC50 [12] was 510 nM and the IC50 (Aorta) was 200 nM. For the same compound, the IC50 [1] was 5 nM, the IC50 (Cytochrome P450 3A4) was 2700 nM and the IC50 [14] was 2100 nM. The clearance [17] was 108 mL/min/kg.
For `CC1=C(C(=O)Nc2ccc3[nH]ncc3c2)C(c2ccc(F)cc2)N=C(c2ccc(Cl)cc2)N1` (configuration not stated), the IC50 [1] was 129 nM.
Work on `CCOc1cc(C2=NC(c3ccc(Cl)cc3F)C(C(=O)Nc3cc4cn[nH]c4cc3F)=C(C)N2)ccn1` (configuration not stated) yielded an IC50 [1] of 11 nM.
In the case of `CC1=C(C(=O)Nc2cc3cn[nH]c3cc2F)C(c2ccc(Cl)cc2F)N=C(c2ccnc(Cl)c2)N1` (configuration not stated), the half-life [18] is reported as 2.2 h, the bioavailability [3] is reported as 49% and the t1/2 (Rattus norvegicus [4]) is reported as 1.75 h. The Vdss (Rattus norvegicus [5]) was 2 L/kg, the Activity (Rattus norvegicus [19]) was 25 mmHg and the IC50 (Cytochrome P450 2C9) was 2500 nM. It also gave an IC50 (Cytochrome P450 2D6) of 5200 nM, an IC50 [12] of 398 nM and an IC50 (Aorta) of 256 nM. The IC50 [1] was 6 nM, the IC50 [14] was 1000 nM and the bioavailability [20] was 19%.
`CC1=C(C(=O)Nc2ccc3[nH]ncc3c2)C(c2ccc(F)cc2)NC(=O)N1` (configuration not stated) [GSK-180736A] gave a half-life [21] of 0.7 h, an IC50 (Aorta) of 760 nM and a clearance [22] of 49 mL/min/kg. It also gave a Vd [23] of 2.2 L/kg.
`CC1=C(C(=O)Nc2ccc3[nH]ncc3c2)C(c2ccc(F)cc2)N=C(c2ccc(C(F)(F)F)nc2)N1` (configuration not stated) [GSK-317354A] showed an IC50 [1] of 75 nM.
